The results in this text go back to US9375395B2, “Compositions comprising an NFκB-inhibitor and a tropoelastin promoter” (JOHNSON & JOHNSON CONSUMER INC., priority 2009, dated 2016).

For one assay, the system named is NFκB. Nature of the assay: NFκB-INHIBITION TEST (NF-kB gene reporter luciferase, TNFα-stimulated FB293 cells). Type of assay: cell-based, human. The method, then:
The NFκB-INHIBITION TEST is conducted in the following manner. FB293 cells, a stable transfected human epithelial cell line containing the gene reporter for NF-kB are used. They may be obtained from, e.g., Panomics (Fremont, Calif.). FB293 are plated at a density of 5×10^4 cells/mL in a suitable medium, e.g., Dulbecco's modified Eagle's medium (DMEM) supplemented with 10% fetal bovine serum (Invitrogen, San Diego, Calif.). The FB293 cells are stimulated with 100 ng/mL of Tumor Necrosis Factor-α (TNFα, available from Sigma-Aldrich of St Louis, Mo.) in the presence of the test sample. Separately, a control sample is tested wherein no test sample is applied. Following a 24-hour incubation at 37° C. with 5% CO2, cells are lysed with 40 μl of reporter lysis buffer (Promega, Madison, Wis.). A 20-μl aliquot of the lysate is assayed using a luciferase assay kit (Promega) and counted for 10 s in a Lmax luminometer (Molecular Devices, Sunnyvale, Calif.) with the data represented as the relative light unit/second. Percent NFκB Inhibition of the test sample is calculated as: NFκB Inhibition=[1−(Lsample/Lcontrol)]*100 where Lsample is the luminescence of the sample and Lcontrol is the luminescence of the control.
The NFκB-INHIBITION TEST described above was performed on test samples of Bay 11-7082 (Sigma-Aldrich, St. Louis, Mo.), Tetrahydrocurcuminoids CG (Sabinsa Corporation, Piscataway, N.J.), as well as various concentrations of 4-hexylresorcinol. The results are shown in Table 1, in which NF-kB Gene Reporter Activation (Luminescence, L) is reported for the test samples and a control sample. Percent NF-kB Inhibition is also reported.
The NFκB-INHIBITION TEST described above was performed on a series of substituted resorcinols each having a concentration of 10 ug/ml.

A further assay concerns elastin promoter. Nature of the assay: TROPOELASTIN PROMOTER ASSAY (elastin promoter-luciferase reporter in H9C2 cells). Type of assay: cell-based, rat. The note with it: 0.1 ug/ml on active basis; for Percent Change Over Vehicle: 24 h (Table 3). The method, then: Suitable tropoelastin promoters may be determined, for example, using the TROPOELASTIN PROMOTER ASSAY. The TROPOELASTIN PROMOTER ASSAY is performed as follows. Rat cardiac myoblasts H9C2 (which may be purchased, for example from ATCC of Manassas, Va.) are used. Cultures are maintained in Dulbecco's modified Eagle's medium (DMEM, Invitrogen Life Technologies, Carlsbad, Calif.) supplemented with 10% fetal bovine serum, 2 mM glutamine, 100 units/ml penicillin, and 50 ug/ml streptomycin (Invitrogen Life Technologies, Carlsbad, Calif.). Cell cultures are transiently transfected with the elastin promoter-luciferase reporter construct (Elp2.2, a 2.2 kb elastin promoter fragment from nt −2267 to nt +2, driving the firefly luciferase gene, which may be obtained from Promega, Madison Wis.). DNA is prepared by Qiagen Maxi columns (Qiagen Valencia, Calif.). In all transfections, a construct with the thymidine kinase promoter and the Renilla luciferase reporter gene (pRL-TK, Promega, Madison Wis.) is included as an internal control. Typically, cells grown in 48-well plates are transfected with 0.45 ug total DNA per well using Lipofectamine 2000 (Invitrogen Life Technologies, Carlsbad, Calif.). One day after transfection, cells are treated with agents at indicated concentrations for approximately 24 hours before they are lysed for luciferase assays, using Dual-Luciferase Reporter System from Promega (Madison, Wis.), following manufacturer's protocol. The firefly luciferase activity is measured first (representing elastin promoter activity), followed by the renilla luciferase (internal control), using luminometer LMAX, from Molecular Devices (Sunnyvale, Calif.). The ratio of these two luciferase activities (RLU) is used to evaluate the Tropoelastin Promoter Activity. […]
Background: In a reporter assay the amount or activity of a reporter protein is the signal.

[1] abbreviates: 10 ug/ml, series of substituted resorcinols (Table 2).

On to `CCCCCCc1ccc(O)cc1O` [4-Hexylresorcinol], for which the “Percent NF-kB Inhibition” value is reported as 1.9% with NFκB (1 ug/ml, TNFα 100 ng/ml stimulated FB293 cells, 24 h); 50.9% with NFκB (5 ug/ml, TNFα 100 ng/ml stimulated FB293 cells, 24 h); 72.9% in the assay with NFκB (10 ug/ml, TNFα 100 ng/ml stimulated FB293 cells, 24 h (Table 1)); 92.4% in the assay with NFκB (setting [1]); 91.4% in the assay on NFκB (50 ug/ml, TNFα 100 ng/ml stimulated FB293 cells, 24 h). For the same compound, the “Percent Change Over Vehicle” value in the assay with elastin promoter and in the assay on elastin promoter (listed as 4-hexylresorcinol) was −12% throughout. The “Tropoelastin Promoter Activity” value in the assay with elastin promoter (24 h, vehicle 1.36 ± 0.33 (Table 3)) was determined as 1.2 ± 0.12.

Regarding `CCCCCCCCCCCC1c2cc(c(O)cc2O)C(CCCCCCCCCCC)c2cc(c(O)cc2O)C(CCCCCCCCCCC)c2cc(c(O)cc2O)C(CCCCCCCCCCC)c2cc1c(O)cc2O` (stereo not drawn) [C-Undecylcalix[4]-resorcinarene, C-Undecylcalix[4]-resorcinarene], in the assay on NFκB (setting [1]), the “Percent NF-kB Inhibition” value came out at 4.87%.

`CC1CCCC(=O)CCCCCc2cc(O)cc(O)c2C(=O)O1` (stereo not drawn) [Zearalanone]: in the assay with NFκB (setting [1]), the “Percent NF-kB Inhibition” value came out at 50.95%.

As to `CC1CCCC(O)CCCCCc2cc(O)cc(O)c2C(=O)O1` (stereo not drawn) [β-Zearalanol], the “Percent NF-kB Inhibition” value in the assay with NFκB (setting [1]) is listed as 76.56%.

For `C[C@H]1CCC[C@@H](O)CCC/C=C/c2cc(O)cc(O)c2C(=O)O1` [β-Zearalenol], in the assay with NFκB (setting [1]), the “Percent NF-kB Inhibition” value came out at 87.1%.
